Data taken from PMC10935026 (Acta Pharmaceutica Sinica. B, 2023).
One block for each molecule: values may come before it.

Columns and labels:
GCGR = GCGR (Homo sapiens, UniProt P47871); assay: GCGR activation CRE-Luc reporter assay in vitro; type: cell-based
human serum albumin = human serum albumin (human, UniProt P02768 25-609); assay: ITC

Sequence of GCGR (P47871 26-477): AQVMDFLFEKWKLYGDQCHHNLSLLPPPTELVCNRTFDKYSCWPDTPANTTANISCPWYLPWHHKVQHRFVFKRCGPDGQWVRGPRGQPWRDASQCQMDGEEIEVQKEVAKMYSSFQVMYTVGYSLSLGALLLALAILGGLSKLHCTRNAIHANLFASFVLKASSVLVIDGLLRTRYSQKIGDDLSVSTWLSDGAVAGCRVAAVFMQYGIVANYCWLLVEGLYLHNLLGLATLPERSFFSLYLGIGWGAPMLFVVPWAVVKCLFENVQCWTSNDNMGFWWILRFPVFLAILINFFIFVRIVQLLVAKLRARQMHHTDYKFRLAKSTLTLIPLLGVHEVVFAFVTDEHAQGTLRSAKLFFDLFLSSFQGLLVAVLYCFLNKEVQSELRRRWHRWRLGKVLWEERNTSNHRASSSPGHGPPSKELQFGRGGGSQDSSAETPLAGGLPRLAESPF

Molecule: CCCCCCCCCCCCCCCC(=O)N[C@@H](CCC(=O)NCCCC[C@H](NC(=O)[C@H](C)NC(=O)[C@H](C)NC(=O)[C@H](CCC(N)=O)NC(=O)CNC(=O)[C@H](CCC(=O)O)NC(=O)[C@H](CC(C)C)NC(=O)[C@H](Cc1ccc(O)cc1)NC(=O)[C@H](CO)NC(=O)[C@H](CO)NC(=O)[C@@H](NC(=O)[C@H](CC(=O)O)NC(=O)[C@H](CO)NC(=O)[C@@H](NC(=O)[C@H](Cc1ccccc1)NC(=O)[C@@H](NC(=O)CNC(=O)[C@H](CCC(=O)O)NC(=O)[C@H](C)NC(=O)[C@@H](N)Cc1cnc[nH]1)[C@@H](C)O)[C@@H](C)O)C(C)C)C(=O)N[C@@H](CCC(=O)O)C(=O)N[C@@H](Cc1ccccc1)C(=O)N[C@H](C(=O)N[C@@H](C)C(=O)N[C@@H](Cc1c[nH]c2ccccc12)C(=O)N[C@@H](CC(C)C)C(=O)N[C@H](C(=O)N[C@@H](CCCNC(=N)N)C(=O)NCC(=O)N[C@@H](CCCNC(=N)N)C(=O)NCC(=O)O)C(C)C)[C@@H](C)CC)C(=O)O [Liraglutide, liraglutide]
EC50 (GCGR): > 1 µM

Kd (human serum albumin): 805 µM
B1: 6-amino acid linker GGSGSG (peptide)
peptide: GGSGSG
